Measured values from patent US10428044B2, “3-amino-1,5,6,7-tetrahydro-4H-indol-4-ones” (Bayer Pharma Aktiengesellschaft, priority 2014, dated 2019).

biological target: (recombinant) catalytic domain of human Bub1 (amino acids 704-1085) (Homo sapiens (Human), UniProt O43683); assay: Bub1 kinase assay (TR-FRET); assay type: biochemical; settings: ATP 10 μM final, peptide substrate 1 μM final, 60 min at 22° C., read-out: Biological Assay: Bub1 kinase assay median IC50
In short: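 Readout was TR-FRET between a Eu-labeled antibody complex recognizing phosphoserine and streptavidin-XL665 on the biotinylated peptide, after EDTA stop and 1 h at 22° C. The kinase reaction ran for 60 min at 22° C. Values are means or medians of repeat tests, from 4-parameter fits normalized to enzyme-free and inhibitor-free controls.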

Chain of (recombinant) catalytic domain of human Bub1 (amino acids 704-1085) (O43683 704-1085): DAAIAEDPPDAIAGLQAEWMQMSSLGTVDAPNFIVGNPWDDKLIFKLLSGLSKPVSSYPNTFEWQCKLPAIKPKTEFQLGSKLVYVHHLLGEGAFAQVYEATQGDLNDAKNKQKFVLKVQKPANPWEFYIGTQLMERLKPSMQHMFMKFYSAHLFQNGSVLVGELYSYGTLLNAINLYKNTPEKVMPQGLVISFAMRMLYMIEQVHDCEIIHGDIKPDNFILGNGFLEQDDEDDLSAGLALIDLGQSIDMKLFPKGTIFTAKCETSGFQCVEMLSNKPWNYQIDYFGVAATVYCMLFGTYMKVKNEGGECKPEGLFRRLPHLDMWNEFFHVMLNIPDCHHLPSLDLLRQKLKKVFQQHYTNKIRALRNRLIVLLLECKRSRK

Structure (SMILES)	IC50 [nM]
CC1(C)CC(=O)c2c([nH]c(-c3ccncc3)c2Nc2ccc(F)c(OC(F)(F)F)c2)C1 [Example 148, 3-{[4-fluoro-3-(trifluoromethoxy)phenyl]amino}-6,6-dimethyl-2-(pyridin-4-yl)-1,5,6,7-tetrahydro-4H-indol-4-one]	479
COc1cc(-c2[nH]c3c(c2Nc2ccccc2)C(=O)CCC3)ccn1 [Example 150, 2-(2-methoxypyridin-4-yl)-3-(phenylamino)-1,5,6,7-tetrahydro-4H-indol-4-one]	1890
O=C1CCCc2[nH]c(-c3ccnc(Br)c3)c(Nc3ccccc3)c21 [Example 152, 2-(2-bromopyridin-4-yl)-3-(phenylamino)-1,5,6,7-tetrahydro-4H-indol-4-one]	239
CC1(C)CC(=O)c2c([nH]c(-c3ccncc3)c2Nc2cccc(C3(C)OCCO3)c2)C1 [Example 153, 6,6-dimethyl-3-{[3-(2-methyl-1,3-dioxolan-2-yl)phenyl]amino}-2-(pyridin-4-yl)-1,5,6,7-tetrahydro-4H-indol-4-one]	11500
CCC(O)c1cccc(Nc2c(-c3ccncc3)[nH]c3c2C(=O)CC(C)(C)C3)c1 (stereo not shown) [Example 154, 3-{[3-(1-hydroxypropyl)phenyl]amino}-6,6-dimethyl-2-(pyridin-4-yl)-1,5,6,7-tetrahydro-4H-indol-4-one]	3000
CC1(C)CC(=O)c2c([nH]c(-c3ccncc3)c2Nc2cccc(C(O)C(F)(F)F)c2)C1 (stereo not shown) [Example 155, 6,6-dimethyl-2-(pyridin-4-yl)-3-{[3-(2,2,2-trifluoro-1-hydroxyethyl)phenyl]amino}-1,5,6,7-tetrahydro-4H-indol-4-one]	1710
COC(C)c1cccc(Nc2c(-c3ccncc3)[nH]c3c2C(=O)CC(C)(C)C3)c1 (stereo not shown) [Example 156, 3-{[3-(1-methoxyethyl)phenyl]amino}-6,6-dimethyl-2-(pyridin-4-yl)-1,5,6,7-tetrahydro-4H-indol-4-one]	743
CC1(C)CC(=O)c2c([nH]c(-c3ccncc3)c2Nc2cccc3ccccc23)C1 [Example 157, 6,6-dimethyl-3-(naphthalen-1-ylamino)-2-(pyridin-4-yl)-1,5,6,7-tetrahydro-4H-indol-4-one]	764
CC1(C)CC(=O)c2c([nH]c(-c3ccncc3)c2Nc2ccccc2Oc2ccccc2)C1 [Example 159, 6,6-dimethyl-3-[(2-phenoxyphenyl)amino]-2-(pyridin-4-yl)-1,5,6,7-tetrahydro-4H-indol-4-one]	1060
CC1(C)CC(=O)c2c([nH]c(-c3ccnc(NC(=O)C(F)F)c3)c2Nc2ccccc2)C1 [Example 166, N-{4-[6,6-dimethyl-4-oxo-3-(phenylamino)-4,5,6,7-tetrahydro-1H-indol-2-yl]pyridin-2-yl}-2,2-difluoroacetamide]	1690
COC(=O)CCn1c2c(c(Nc3ccccc3)c1-c1ccncc1)C(=O)CCC2 [Example 172, methyl 3-[4-oxo-3-(phenylamino)-2-(pyridin-4-yl)-4,5,6,7-tetrahydro-1H-indol-1-yl]propanoate]	1050
O=C(O)CCn1c2c(c(Nc3ccccc3)c1-c1ccncc1)C(=O)CCC2 [Example 173, 3-[4-oxo-3-(phenylamino)-2-(pyridin-4-yl)-4,5,6,7-tetrahydro-1H-indol-1-yl]propanoic acid]	474
NC(=O)CCn1c2c(c(Nc3ccccc3)c1-c1ccncc1)C(=O)CCC2 [Example 174, 3-[4-oxo-3-(phenylamino)-2-(pyridin-4-yl)-4,5,6,7-tetrahydro-1H-indol-1-yl]propanamide]	220
CS(=O)(=O)CCn1c2c(c(Nc3ccccc3)c1-c1ccncc1)C(=O)CCC2 [Example 176, 1-[2-(methylsulfonyl)ethyl]-3-(phenylamino)-2-(pyridin-4-yl)-1,5,6,7-tetrahydro-4H-indol-4-one]	2040
CCn1c2c(c(Nc3ccccc3)c1-c1ccncc1Cl)C(=O)CCC2 [Example 177, 2-(3-chloropyridin-4-yl)-1-ethyl-3-(phenylamino)-1,5,6,7-tetrahydro-4H-indol-4-one]	5670

More lines, in order of falling IC50, values ahead:

IC50 [nM]	Structure (SMILES)
217	O=C1CCCc2c1c(Nc1ccccc1)c(-c1ccncc1)n2CCCO [Example 175, 1-(3-hydroxypropyl)-3-(phenylamino)-2-(pyridin-4-yl)-1,5,6,7-tetrahydro-4H-indol-4-one]
204	CC1(C)CC(=O)c2c([nH]c(-c3ccncc3)c2Nc2ccccc2-c2ccccc2)C1 [Example 160, 3-(biphenyl-2-ylamino)-6,6-dimethyl-2-(pyridin-4-yl)-1,5,6,7-tetrahydro-4H-indol-4-one]
199	CC1(C)CC(=O)c2c(Nc3ccccc3)c(-c3ccncc3)n(CC(F)(F)F)c2C1 [Example 180, 6,6-dimethyl-3-(phenylamino)-2-(pyridin-4-yl)-1-(2,2,2-trifluoroethyl)-1,5,6,7-tetrahydro-4H-indol-4-one]
162	Cn1c2c(c(Nc3ccccc3)c1-c1ccncc1)C(=O)CC(C)(C)C2 [Example 179, 1,6,6-trimethyl-3-(phenylamino)-2-(pyridin-4-yl)-1,5,6,7-tetrahydro-4H-indol-4-one]
126	O=C1CCCc2[nH]c(-c3ccnc(N(C(=O)C4CC4)C(=O)C4CC4)c3)c(Nc3ccccc3)c21 [Example 163, N-(cyclopropylcarbonyl)-N-{4-[4-oxo-3-(phenylamino)-4,5,6,7-tetrahydro-1H-indol-2-yl]pyridin-2-yl}cyclopropanecarboxamide]
125	Cn1c2c(c(Nc3ccccc3)c1-c1ccncc1)C(=O)CCC2 [Example 169, 1-methyl-3-(phenylamino)-2-(pyridin-4-yl)-1,5,6,7-tetrahydro-4H-indol-4-one]
99.6	CC1CC(=O)c2c(Nc3ccccc3)c(-c3ccncc3)n(C)c2C1 (stereo not shown) [Example 178, 1,6-dimethyl-3-(phenylamino)-2-(pyridin-4-yl)-1,5,6,7-tetrahydro-4H-indol-4-one]
95.6	CC1(C)CC(=O)c2c([nH]c(-c3ccncc3)c2Nc2ccc3ccccc3c2)C1 [Example 158, 6,6-dimethyl-3-(naphthalen-2-ylamino)-2-(pyridin-4-yl)-1,5,6,7-tetrahydro-4H-indol-4-one]
94.1	Cc1cc(-c2[nH]c3c(c2Nc2ccccc2)C(=O)CC(C)(C)C3)ccn1 [Example 149, 6,6-dimethyl-2-(2-methylpyridin-4-yl)-3-(phenylamino)-1,5,6,7-tetrahydro-4H-indol-4-one]
85.6	O=C1CCCc2[nH]c(-c3ccnc(N(C(=O)C4CC4)C(=O)C4CC4)c3)c(Nc3cccc(F)c3)c21 [Example 162, N-(cyclopropylcarbonyl)-N-(4-{3-[(3-fluorophenyl)amino]-4-oxo-4,5,6,7-tetrahydro-1H-indol-2-yl}pyridin-2-yl)cyclopropanecarboxamide]
40.2	CCn1c2c(c(Nc3ccccc3)c1-c1ccncc1)C(=O)CCC2 [Example 170, 1-ethyl-3-(phenylamino)-2-(pyridin-4-yl)-1,5,6,7-tetrahydro-4H-indol-4-one]
32.7	CCn1c2c(c(Nc3ccccc3)c1-c1ccncc1)C(=O)CC(C)(C)C2 [Example 181, 1-ethyl-6,6-dimethyl-3-(phenylamino)-2-(pyridin-4-yl)-1,5,6,7-tetrahydro-4H-indol-4-one]
14.4	CCCn1c2c(c(Nc3ccccc3)c1-c1ccncc1)C(=O)CCC2 [Example 171, 3-(phenylamino)-1-propyl-2-(pyridin-4-yl)-1,5,6,7-tetrahydro-4H-indol-4-one]
